Data on 10 compounds can be found in ChEMBL document CHEMBL2390950, “Dieckol, a SARS-CoV 3CL(pro) inhibitor, isolated from the edible brown algae Ecklonia cava” (Bioorg Med Chem, 2013).

Data set [1] deals with Replicase polyprotein 1ab (Severe acute respiratory syndrome-related coronavirus) (UniProt P0C6X7).
Data set [2] deals with T1, Replicase polyprotein 1ab (Severe acute respiratory syndrome-related coronavirus, UniProt P0C6X7).
In data set [3] the target is Replicase polyprotein 1ab (Severe acute respiratory syndrome-related coronavirus) (UniProt P0C6X7). This is another data set of the same source.
Data set [4] can be described thus: Selectivity index, ratio of CC50 for african green monkey Vero cells to IC50 for SARS coronavirus 3C-like protease cis-cleavage activity transfected in african green monkey Vero cells. The class given is functional.
The test system of data set [5] is Vero. The data set can be described thus: (§1) Cytotoxicity against african green monkey Vero cells assessed as cell death by MTT assay. The class given is cell-based. The following applies: chlorocebus sabaeus, vero.
The target of data set [6] is Replicase polyprotein 1ab (Severe acute respiratory syndrome-related coronavirus) (UniProt P0C6X7). The data set can be described thus: (§2) Inhibition of SARS coronavirus 3C-like protease cis-cleavage activity transfected in african green monkey Vero cells using SAVLQSGFRK as substrate after 5 hrs by luciferase reporter gene assay. The class given is cell-based. Background: A reporter such as luciferase makes a cellular process visible.

Data set [7] concerns the target T1, Replicase polyprotein 1ab. The data set is described as §2. The class given is cell-based.
Data set [8] has as its target T1, Replicase polyprotein 1ab. The source holds these as a separate data set.
For data set [9], the target named is Replicase polyprotein 1ab (Severe acute respiratory syndrome-related coronavirus) (UniProt P0C6X7). This is another data set of the same source.
Data set [10] shares this target. This is another data set of the same source.
For data set [11] the target is unchanged. Briefly: (§3) Binding affinity to SARS coronavirus 3C-like protease by SPR analysis.
Data set [12] deals with T1, Replicase polyprotein 1ab. Described as §3.
The target in data set [13] is Replicase polyprotein 1ab (Severe acute respiratory syndrome-related coronavirus) (UniProt P0C6X7). The source holds these as a separate data set.
Data set [14] has the same target. Briefly: Inhibition of SARS coronavirus 3C-like protease cis-cleavage activity transfected in african green monkey Vero cells using SAVLQSGFRK as substrate at 200 uM after 5 hrs by luciferase reporter gene assay relative to control. The class given is cell-based.
The nature of data set [15]: as §1. The class given is cell-based. The following applies: chlorocebus sabaeus, Vero cells.

The source made the active and inactive calls. The calls are words filed in the database; no cut-off is given here.

For orientation: inhibition means the relative decrease from the control value, in per cent. Usually IC50 stands for the point on the concentration scale where inhibition reaches its midpoint. In general, CC50 refers to the concentration at which the toxic effect on the cells reaches its halfway point. What is called Ki is the dissociation constant of the complex between target and ligand, obtained from inhibition or displacement. For the compound `Oc1cc(O)cc(Oc2c(O)cc(O)c3c2Oc2c(O)cc(Oc4c(O)cc(O)cc4O)cc2O3)c1`, the inhibition result in data set [1] and in [6] was “Dose-dependent effect” in each case. Further, the IC50 in data set [2] stood at 42.1 µM; in data set [7], 112 µM. Further, the inhibition result in data set [3] was “Active”. Also, in data set [4], the “Ratio CC50/IC50” value is on record as greater than 1.8. The CC50 in data set [5] is greater than 200 µM. The same compound returned a Ki in data set [8] of 19.3 µM.
Consider `Oc1cc(O)cc(Oc2c(Oc3c(O)cc(O)cc3O)cc(O)c3c2Oc2c(O)cc(O)cc2O3)c1` [2-PHLOROECKOL], for which the inhibition entry in data set [1] and in data set [6] was “Dose-dependent effect” each time. Besides, the IC50 in data set [2] came out at 13.3 µM; in data set [7], 112 µM. The inhibition result in [3] was “Active”. The “Ratio CC50/IC50” value in [4] was greater than 1.8. The CC50 in [5] was greater than 200 µM. In [8], this compound had a Ki of 24 µM.
The term Kd denotes the free concentration of one partner at which half of the binding sites on the other are occupied at equilibrium, for simple one-to-one binding. As to `Oc1cc(O)cc(Oc2c(O)cc(O)c3c2Oc2c(O)cc(Oc4c(O)cc(Oc5c(O)cc(O)c6c5Oc5c(O)cc(O)cc5O6)cc4O)cc2O3)c1` [DIECKOL], the inhibition result in data set [1] and in data set [6] was “Dose-dependent effect” each time. Moreover, the IC50 came to 2.7 µM in data set [2] and 68.1 µM in data set [7]. Also, the inhibition entry in [3] was “Active”. For the same compound, the Ratio IC50 in data set [9] was 30; in [10], 50; in data set [13] it was 60. Besides, in [4], the “Ratio CC50/IC50” value is recorded as greater than 2.9. The Activity result in data set [11] was “Dose-dependent effect”. In addition, in [12], the Kd is 10.3 µM. For the same compound, the CC50 in [5] was greater than 200 µM. Besides, the Ki in data set [8] was 2.4 µM.
Consider `Oc1cc(O)c2oc3cc(O)c4oc5cc(O)cc(O)c5oc4c3oc2c1` [DIOXINODEHYDROECKOL], for which the inhibition entry in data set [1] and in [6] was “Dose-dependent effect” in each case. The IC50 in data set [2] was 158 µM; in [7], 146 µM. The “Ratio CC50/IC50” value in data set [4] is on record as greater than 1.4. In data set [5], the CC50 was greater than 200 µM.
Turning to `Oc1cc(O)cc(Oc2c(O)cc(O)c3c2Oc2c(O)cc(O)cc2O3)c1` [ECKOL], the inhibition in data set [14] was 30%; in [1], “Dose-dependent effect”. The IC50 in [2] stood at 8.8 µM. Further, the inhibition result in [3] was “Active”. Moreover, in data set [4], the “Ratio CC50/IC50” value is given as less than 1. The CC50 in [5] was greater than 200 µM. For the same compound, in data set [8], affinity was put at a Ki of 8.2 µM.
On to `Oc1cc(O)c(Oc2cc(O)cc(O)c2Oc2cc(O)cc(O)c2-c2c(O)cc(O)cc2O)c(O)c1` [FUCODIPHLOROETHOL G], for which the inhibition entry in data set [1] and in data set [6] was “Dose-dependent effect” throughout. The results for the IC50 in [2] and in data set [7] were 22.5 µM and 177 µM, respectively. Also, the inhibition entry in data set [3] is “Active”. For the same compound, the “Ratio CC50/IC50” value in [4] is recorded as greater than 1.1. Moreover, the CC50 in data set [5] was greater than 200 µM. In addition, the affinity in data set [8] corresponds to a Ki of 63.5 µM.
As to `COc1ccc([C@@H]2CC(=O)c3c(O)cc(O)cc3O2)cc1O` [HESPERETIN], the Kd in data set [12] is 24.5 µM.
For `Oc1cc(O)cc(Oc2c(O)cc(O)c3c2Oc2c(O)cc4oc5c(Oc6cc(O)cc(O)c6)c(O)cc(O)c5c4c2O3)c1` [PHLOROFUCOFUROECKOL A], the inhibition result in [1] and in [6] was “Dose-dependent effect” in each case. The IC50 in [2] came out at 16.7 µM; in data set [7], 175 µM. Further, the inhibition result in data set [3] is “Active”. The “Ratio CC50/IC50” value in data set [4] is listed as greater than 1.1. Besides, the CC50 in data set [5] is greater than 200 µM. Also, in [8], the affinity, expressed as Ki, was 10.6 µM.
The compound `Oc1cc(O)cc(O)c1` [PHLOROGLUCINOL] registered an IC50 in data set [2] greater than 200 µM. In addition, in data set [5], the CC50 was greater than 200 µM.
For the compound `Oc1cc(O)cc(Oc2c(O)cc(Oc3c(O)cc(O)cc3O)cc2O)c1` [TRIPHLORETHOL A], the results for the inhibition in data set [14] and in data set [1] were 15% and “Dose-dependent effect”, respectively. Also, the “Ratio CC50/IC50” value in [4] is listed as less than 1. Besides, the CC50 in data set [15] is greater than 200 µM.
